Measurements: patent US7989005B2, “Corosolic acid formulation and its application for weight-loss management and blood sugar balance” (Soft Gel Technologies, Inc., priority 2000, dated 2011)

Key:
[1] = Acute toxicity studies in rats, single oral limit-dose; assay type: in vivo; details: single oral limit-dose of 5 g/Kg
Source text: The Journal of the Philippine Medical Association, 22, #7, 395402, 1940; Garcia, F. Distribution and Deterioration of Insulin-like Principle in Lagerstroemia Speciosa (Banaba). Acta Medica Philippina, 99-104; Garcia, F., and Melencio-Maglalang, P. Application of Banabins (A Plantisul Preparation) and S. B. Menus to Diabetics. The Journal of the Philippine Medical Association, 33, #1, 7-16, 1957; Garcia, F. Criticisms and Answers on Published Articles concerning Banabins or Plantisul Tablets. The Journal of the Philippine Medical Association, 35, #5, 313-319, 1959; Garcia, L., Pojas, F., Castro, I., Venzon, E., Sisson, F. and Capal, T. Pharmaceutico-chemical and Pharmacological Studies on a Crude Drug from Lagerstroemia Speciosa. The Philippine Journal of Science, 116, #4, 361-375, 1987; Scalori V et al., Int. J. Tiss. Reac., 1983, X 2, 95-97).

[2] = test system: Ehrlich Ascites tumor cells; details: in-vitro; cited from earlier work

Q: For C[C@H]1[C@H](C)CC[C@]2(C(=O)O)CC[C@]3(C)C(=CC[C@@H]4[C@@]5(C)C[C@@H](O)[C@H](O)C(C)(C)[C@@H]5CC[C@]43C)[C@H]12 [Corosolic acid, 2-a-hydroxyursolic acid], which acute toxicity [1] is on record?
A: safe and non-toxic

Q: What about the “cellular uptake of glucose” value [2] of the same molecule?
A: improves the cellular uptake of glucose
